In the supplement of paper PMC11208160:

Assay: recombinant UMI read abundance after kanamycin selection (control-corrected) (log10(CPM+1)); higher = more efficient recombination; extreme values may be limits of the assay; sequences stand for … in AGTGCAGAGAAAATCGGCCAGTTTTCTCTGCCTGCAGTCCGCATGCCGTGGGACCCCTTGGGTTCTAACCTGTTGCCTAGATTTATGCAGCGGACTGCCTTTCTCCCAAAGTGATAAACCGG…AGGTTGGTTTCACT; site = the 11-nt donor
Procedure, shortened: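 After plating on IPTG (0.07 mM) plus kanamycin, or unselected, in two replicates, recombinant UMIs were PCR-amplified across the donor–target junction and sequenced. The cells were Escherichia coli co-electroporated with a UMI-tagged donor and donor-binding-loop pair library and a target plasmid with a fixed target and T7-inducible IS621 bridge recombinase. Values are log10(CPM+1), with CPM averaged over replicates and scaled by control-derived factors.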

Row | Sequence | recombinant UMI read abundance (log10)
1 | GATTGGACATGGACCGGTTTTCCCGGTAATCCGTATTTGAC (site GATGGGACTGT) | 0
2 | GATTGGACATGGACCGGTTTTCCCGGTAATCCGTATTTGAC (site GATTAGACTGT) | 0
3 | GATTGGACATGGACCGGTTTTCCCGGTAATCCGTATTTGAC (site GATTCGACTGT) | 0
4 | GATTGGACATGGACCGGTTTTCCCGGTAATCCGTATTTGAC (site GATTGAACTGT) | 0
5 | GATTGGACATGGACCGGTTTTCCCGGTAATCCGTATTTGAC (site GATTGCACTGT) | 0
6 | GATTGGACATGGACCGGTTTTCCCGGTAATCCGTATTTGAC (site GATTGGACTAT) | 0.0111
7 | GATTGGACATGGACCGGTTTTCCCGGTAATCCGTATTTGAC (site GATTGGACTCT) | 0.00872
8 | GATTGGACATGGACCGGTTTTCCCGGTAATCCGTATTTGAC (site GATTGGACTGA) | 0.0103
9 | GATTGGACATGGACCGGTTTTCCCGGTAATCCGTATTTGAC (site GATTGGACTGC) | 0
10 | GATTGGACATGGACCGGTTTTCCCGGTAATCCGTATTTGAC (site GATTGGACTGG) | 0
11 | GATTGGACATGGACCGGTTTTCCCGGTAATCCGTATTTGAC (site GATTGGACTGT) | 0.659
12 | GATTGGACATGGACCGGTTTTCCCGGTAATCCGTATTTGAC (site GATTGGACTTT) | 0.0228
13 | GATTGGACATGGACCGGTTTTCCCGGTAATCCGTATTTGAC (site GATTGGCCTGT) | 0
14 | GATTGGACATGGACCGGTTTTCCCGGTAATCCGTATTTGAC (site GATTGGGCTGT) | 0
15 | GATTGGACATGGACCGGTTTTCCCGGTAATCCGTATTTGAC (site GATTGGTCTGT) | 0
16 | GATTGGACATGGACCGGTTTTCCCGGTAATCCGTATTTGAC (site GATTGTACTGT) | 0
17 | GATTGGACATGGACCGGTTTTCCCGGTAATCCGTATTTGAC (site GATTTGACTGT) | 0
18 | GATTGGACATGGACCGGTTTTCCCGGTAATCCGTATTTGAC (site GCTTGGACTGT) | 0
19 | GATTGGACATGGACCGGTTTTCCCGGTAATCCGTATTTGAC (site GGTTGGACTGT) | 0.928
20 | GATTGGACATGGACCGGTTTTCCCGGTAATCCGTATTTGAC (site GTTTGGACTGT) | 0
21 | GATTGGACATGGACCGGTTTTCCCGGTAATCCGTATTTGAC (site TATTGGACTGT) | 1.83
22 | GATTGGACATGGACCGGTTTTCCCGGTAATCCGTATTTGAG (site GATTGGACTAT) | 0.00853
23 | GATTGGACATGGACCGGTTTTCCCGGTAATCCGTATTTGAG (site GATTGGACTCT) | 1.33
24 | GATTGGACATGGACCGGTTTTCCCGGTAATCCGTATTTGAG (site GATTGGACTGT) | 0
25 | GATTGGACATGGACCGGTTTTCCCGGTAATCCGTATTTGAG (site GATTGGACTTT) | 0.0197

Row | Sequence | recombinant UMI read abundance (log10)
26 | GATTTATCATGGACCGGTTTTCCCGGTAATCCGTATTTGAA (site GATTTATCTTT) | 1.64
27 | GATTTATCATGGACCGGTTTTCCCGGTAATCCGTATTTGGC (site GATTTATCTGC) | 1.38
28 | GATTTGGCATGGACCGGTTTTCCCGGTAATCCGTATTTGTC (site GATTTGGCTGA) | 0
29 | GCAACCTCATGGACCGGTTTTCCCGGTAATCCGTATTTGCC (site GCAACCTCTGG) | 0.0535
30 | GCAACGCCATGGACCGGTTTTCCCGGTAATCCGTATTTGTA (site GCAACGCCTTA) | 0.399
31 | GCAACGCCATGGACCGGTTTTCCCGGTAATCCGTATTTGTA (site GCCACGCCTTA) | 0.026
32 | GCAACGCCATGGACCGGTTTTCCCGGTAATCCGTATTTGTA (site GCGACGCCTTA) | 0.015
33 | GCAACGCCATGGACCGGTTTTCCCGGTAATCCGTATTTGTA (site GCTACGCCTTA) | 0.0211
34 | GCAAGAGCATGGACCGGTTTTCCCGGTAATCCGTATTTGGC (site GCAAGAGCTGC) | 1.82
35 | GCAAGATCATGGACCGGTTTTCCCGGTAATCCGTATTTGGA (site GCAAGATCTTC) | 1.69
36 | GCAAGCTCATGGACCGGTTTTCCCGGTAATCCGTATTTGTG (site GCAAGCTCTCA) | 2.55
37 | GCACGACCATGGACCGGTTTTCCCGGTAATCCGTATTTGCA (site GCACGACCTTG) | 0
38 | GCACGTTCATGGACCGGTTTTCCCGGTAATCCGTATTTGGC (site GCACGTTCTGC) | 2.74
39 | GCACTTGCATGGACCGGTTTTCCCGGTAATCCGTATTTGGC (site GCACTTGCTGC) | 2.1
40 | GCAGAATCATGGACCGGTTTTCCCGGTAATCCGTATTTGCA (site ACAGTATCTTG) | 1.67
41 | GCAGAATCATGGACCGGTTTTCCCGGTAATCCGTATTTGCA (site GCAGAATCTTG) | 2.13
42 | GCAGACACATGGACCGGTTTTCCCGGTAATCCGTATTTGAT (site GCAGACACTAT) | 1.89
43 | GCAGACCCATGGACCGGTTTTCCCGGTAATCCGTATTTGAT (site GCAGACCCTAT) | 0.819
44 | GCAGACCCATGGACCGGTTTTCCCGGTAATCCGTATTTGGG (site GCAGACCCTCC) | 0.0178
45 | GCAGAGACATGGACCGGTTTTCCCGGTAATCCGTATTTGCG (site ACAGAGACTCG) | 2.51
46 | GCAGAGACATGGACCGGTTTTCCCGGTAATCCGTATTTGCG (site CCAGAGACTCG) | 2.58
47 | GCAGAGACATGGACCGGTTTTCCCGGTAATCCGTATTTGCG (site GCAGAGACTCG) | 2.45
48 | GCAGAGACATGGACCGGTTTTCCCGGTAATCCGTATTTGCG (site TCAGAGACTCG) | 2.34
49 | GCAGCCCCATGGACCGGTTTTCCCGGTAATCCGTATTTGCT (site GCAGCCCCTAG) | 2.32
50 | GCAGCGGCATGGACCGGTTTTCCCGGTAATCCGTATTTGCC (site GCAGCGGCTGG) | 1.22

Row | Sequence | recombinant UMI read abundance (log10)
51 | GCAGGAGCATGGACCGGTTTTCCCGGTAATCCGTATTTGGA (site GCAGGAGCTTC) | 1.41
52 | GCAGGCACATGGACCGGTTTTCCCGGTAATCCGTATTTGCA (site GCAGGCACTTG) | 2.39
53 | GCAGGCGCATGGACCGGTTTTCCCGGTAATCCGTATTTGCG (site GCAGGCGCTCG) | 2.03
54 | GCAGGTGCATGGACCGGTTTTCCCGGTAATCCGTATTTGGC (site GCAGGTGCTGC) | 1.53
55 | GCAGTATCATGGACCGGTTTTCCCGGTAATCCGTATTTGCT (site ACAGTATCTTG) | 0
56 | GCAGTATCATGGACCGGTTTTCCCGGTAATCCGTATTTGCT (site GCAGTATCTAG) | 2.7
57 | GCAGTGTCATGGACCGGTTTTCCCGGTAATCCGTATTTGAT (site GCAGTGTCTAT) | 2.82
58 | GCAGTTACATGGACCGGTTTTCCCGGTAATCCGTATTTGGA (site GCAGTTACTTC) | 1.1
59 | GCATAGACATGGACCGGTTTTCCCGGTAATCCGTATTTGCC (site GAATAGACTGG) | 0.0508
60 | GCATAGACATGGACCGGTTTTCCCGGTAATCCGTATTTGCC (site GCATAGACTGG) | 1.74
61 | GCATAGACATGGACCGGTTTTCCCGGTAATCCGTATTTGCC (site GGATAGACTGG) | 0
62 | GCATAGACATGGACCGGTTTTCCCGGTAATCCGTATTTGCC (site GTATAGACTGG) | 0
63 | GCATGGTCATGGACCGGTTTTCCCGGTAATCCGTATTTGGA (site GCATGGTCTTC) | 1.31
64 | GCATGTGCATGGACCGGTTTTCCCGGTAATCCGTATTTGGT (site GCATGTGCTAC) | 1.79
65 | GCATTGACATGGACCGGTTTTCCCGGTAATCCGTATTTGTT (site GCATTGACTAA) | 1.4
66 | GCCAACTCATGGACCGGTTTTCCCGGTAATCCGTATTTGTT (site GCCAACTCTAA) | 1.65
67 | GCCAAGCCATGGACCGGTTTTCCCGGTAATCCGTATTTGCC (site GCCAAGCCTGG) | 0
68 | GCCAAGTCATGGACCGGTTTTCCCGGTAATCCGTATTTGGG (site GCCAAGTCTCC) | 0.538
69 | GCCAATTCATGGACCGGTTTTCCCGGTAATCCGTATTTGCC (site ACCAATTCTGG) | 0
70 | GCCAATTCATGGACCGGTTTTCCCGGTAATCCGTATTTGCC (site CCCAATTCTGG) | 0
71 | GCCAATTCATGGACCGGTTTTCCCGGTAATCCGTATTTGCC (site GCCAATTCTGG) | 0.426
72 | GCCAATTCATGGACCGGTTTTCCCGGTAATCCGTATTTGCC (site TCCAATTCTGG) | 0
73 | GCCACACCATGGACCGGTTTTCCCGGTAATCCGTATTTGTA (site GCCACACCTTA) | 0.0107
74 | GCCACACCATGGACCGGTTTTCCCGGTAATCCGTATTTGTA (site GCCACCCCTTA) | 0.00331
75 | GCCACACCATGGACCGGTTTTCCCGGTAATCCGTATTTGTA (site GCCACGCCTTA) | 0.00626
